Data: the CheMixHub ionic liquid set
± gives the uncertainty stated by the source.

Assay: xn = mol fraction of the nth substance listed

CC(=O)[O-].CCCC[n+]1ccn(C)c1 + O
viscosity (293.15 K, 100 kPa, x2 = 0.1843): 559 ± 46 mPa·s
viscosity (293.15 K, 100 kPa, x2 = 0.3889): 298 ± 19 mPa·s
viscosity (293.15 K, 100 kPa, x2 = 0.5951): 124.3 ± 5.2 mPa·s
viscosity (293.15 K, 100 kPa, x2 = 0.8004): 32.1 ± 1 mPa·s
viscosity (298.15 K, 100 kPa, x2 = 0): 595 ± 50 mPa·s
viscosity (298.15 K, 101 kPa, x1 = 0.03479): 2.23 ± 0.14 mPa·s
viscosity (298.15 K, 101 kPa, x1 = 0.03897): 2.35 ± 0.14 mPa·s
viscosity (298.15 K, 101 kPa, x1 = 0.04311): 2.66 ± 0.14 mPa·s
viscosity (303.15 K, 100 kPa, x2 = 0): 400 ± 29 mPa·s
viscosity (303.15 K, 100 kPa, x2 = 0.1843): 262 ± 16 mPa·s
viscosity (303.15 K, 100 kPa, x2 = 0.3889): 150 ± 6.9 mPa·s
viscosity (303.15 K, 100 kPa, x2 = 0.5951): 68.8 ± 2.2 mPa·s
viscosity (303.15 K, 100 kPa, x2 = 0.8004): 19.69 ± 0.62 mPa·s
viscosity (303.15 K, 101 kPa, x1 = 0.03479): 2.18 ± 0.14 mPa·s
viscosity (303.15 K, 101 kPa, x1 = 0.03897): 2.29 ± 0.14 mPa·s
viscosity (303.15 K, 101 kPa, x1 = 0.04311): 2.63 ± 0.14 mPa·s
viscosity (308.15 K, 101 kPa, x1 = 0.03479): 2.16 ± 0.14 mPa·s
viscosity (308.15 K, 101 kPa, x1 = 0.03897): 2.25 ± 0.14 mPa·s
viscosity (308.15 K, 101 kPa, x1 = 0.04311): 2.56 ± 0.14 mPa·s
viscosity (313.15 K, 100 kPa, x2 = 0): 200 ± 11 mPa·s
viscosity (313.15 K, 100 kPa, x2 = 0.0171): 138.1 ± 5.2 mPa·s
viscosity (313.15 K, 100 kPa, x2 = 0.1843): 138.2 ± 6.2 mPa·s
viscosity (313.15 K, 100 kPa, x2 = 0.3889): 85 ± 3 mPa·s
viscosity (313.15 K, 100 kPa, x2 = 0.5951): 41.9 ± 1.3 mPa·s
viscosity (313.15 K, 100 kPa, x2 = 0.8004): 13.12 ± 0.41 mPa·s
viscosity (313.15 K, 101 kPa, x1 = 0.03479): 2.13 ± 0.14 mPa·s
viscosity (313.15 K, 101 kPa, x1 = 0.03897): 2.22 ± 0.14 mPa·s
viscosity (313.15 K, 101 kPa, x1 = 0.04311): 2.49 ± 0.14 mPa·s
viscosity (318.15 K, 101 kPa, x1 = 0.03479): 1.74 ± 0.14 mPa·s
viscosity (318.15 K, 101 kPa, x1 = 0.03897): 2.11 ± 0.14 mPa·s
viscosity (318.15 K, 101 kPa, x1 = 0.04311): 2.29 ± 0.14 mPa·s
viscosity (323.15 K, 100 kPa, x2 = 0): 111.7 ± 4.5 mPa·s
viscosity (323.15 K, 100 kPa, x2 = 0.1843): 79.7 ± 2.8 mPa·s
viscosity (323.15 K, 100 kPa, x2 = 0.3889): 51.8 ± 1.6 mPa·s
viscosity (323.15 K, 100 kPa, x2 = 0.5951): 26.97 ± 0.85 mPa·s
viscosity (323.15 K, 100 kPa, x2 = 0.8004): 9.09 ± 0.28 mPa·s
viscosity (323.15 K, 101 kPa, x1 = 0.03479): 1.58 ± 0.14 mPa·s
viscosity (323.15 K, 101 kPa, x1 = 0.03897): 2.07 ± 0.14 mPa·s
viscosity (323.15 K, 101 kPa, x1 = 0.04311): 2.26 ± 0.14 mPa·s
viscosity (328.15 K, 101 kPa, x1 = 0.03479): 1.51 ± 0.14 mPa·s
viscosity (328.15 K, 101 kPa, x1 = 0.03897): 1.91 ± 0.14 mPa·s
viscosity (328.15 K, 101 kPa, x1 = 0.04311): 2.02 ± 0.14 mPa·s
viscosity (333.15 K, 100 kPa, x2 = 0): 67.3 ± 2.2 mPa·s
viscosity (333.15 K, 100 kPa, x2 = 0.01197): 48.8 ± 1 mPa·s
viscosity (333.15 K, 100 kPa, x2 = 0.1843): 48.6 ± 1.6 mPa·s
viscosity (333.15 K, 100 kPa, x2 = 0.3889): 33.6 ± 1.1 mPa·s
viscosity (333.15 K, 100 kPa, x2 = 0.5951): 18.26 ± 0.57 mPa·s
viscosity (333.15 K, 101 kPa, x1 = 0.03479): 1.24 ± 0.14 mPa·s
viscosity (333.15 K, 101 kPa, x1 = 0.03897): 1.86 ± 0.14 mPa·s
viscosity (333.15 K, 101 kPa, x1 = 0.04311): 1.97 ± 0.14 mPa·s
viscosity (343.15 K, 100 kPa, x2 = 0): 41.6 ± 1.4 mPa·s
viscosity (343.15 K, 100 kPa, x2 = 0.1843): 32.4 ± 1 mPa·s
viscosity (343.15 K, 100 kPa, x2 = 0.3889): 23.31 ± 0.74 mPa·s
viscosity (343.15 K, 100 kPa, x2 = 0.5951): 13 ± 0.41 mPa·s
viscosity (353.15 K, 100 kPa, x2 = 0): 27.86 ± 0.91 mPa·s
viscosity (353.15 K, 100 kPa, x2 = 0.1843): 22.25 ± 0.71 mPa·s
viscosity (353.15 K, 100 kPa, x2 = 0.3889): 16.58 ± 0.53 mPa·s
viscosity (353.15 K, 100 kPa, x2 = 0.5951): 9.64 ± 0.3 mPa·s
viscosity (363.15 K, 100 kPa, x2 = 0): 19.87 ± 0.65 mPa·s
viscosity (363.15 K, 100 kPa, x2 = 0.1843): 15.93 ± 0.51 mPa·s
viscosity (363.15 K, 100 kPa, x2 = 0.5951): 7.37 ± 0.23 mPa·s
viscosity (373.15 K, 100 kPa, x2 = 0): 14.82 ± 0.48 mPa·s
viscosity (373.15 K, 100 kPa, x2 = 0.1843): 11.94 ± 0.38 mPa·s

O=C1CCCCCN1 + CCCC[N+](CCCC)(CCCC)CCCC.[Cl-]
electrical conductivity (313.15 K, 101 kPa, x1 = 0.5): 0.2162 ± 0.0004 S/m
electrical conductivity (315.65 K, 101 kPa, x1 = 0.5): 0.257 ± 0.0004 S/m
electrical conductivity (328.15 K, 101 kPa, x1 = 0.5): 0.5612 ± 0.0005 S/m

CCCC[n+]1cccc(C)c1.F[B-](F)(F)F + O
electrical conductivity (298.15 K, 101 kPa, x1 = 0.0002144): 0.107 ± 0.02 S/m
electrical conductivity (298.15 K, 101 kPa, x1 = 0.0004179): 0.2 ± 0.02 S/m
electrical conductivity (298.15 K, 101 kPa, x1 = 0.0004845): 0.232 ± 0.02 S/m
electrical conductivity (298.15 K, 101 kPa, x1 = 0.0007527): 0.331 ± 0.02 S/m
electrical conductivity (298.15 K, 101 kPa, x1 = 0.001001): 0.448 ± 0.02 S/m
electrical conductivity (298.15 K, 101 kPa, x1 = 0.001159): 0.5 ± 0.02 S/m
electrical conductivity (298.15 K, 101 kPa, x1 = 0.00129): 0.549 ± 0.02 S/m
electrical conductivity (298.15 K, 101 kPa, x1 = 0.001546): 0.642 ± 0.02 S/m
electrical conductivity (298.15 K, 101 kPa, x1 = 0.001714): 0.709 ± 0.02 S/m
electrical conductivity (298.15 K, 101 kPa, x1 = 0.001876): 0.763 ± 0.02 S/m
electrical conductivity (298.15 K, 101 kPa, x1 = 0.002129): 0.837 ± 0.02 S/m
electrical conductivity (298.15 K, 101 kPa, x1 = 0.002298): 0.886 ± 0.02 S/m
electrical conductivity (298.15 K, 101 kPa, x1 = 0.002565): 0.977 ± 0.02 S/m
electrical conductivity (298.15 K, 101 kPa, x1 = 0.002757): 1.03 ± 0.02 S/m
electrical conductivity (298.15 K, 101 kPa, x1 = 0.002862): 1.08 ± 0.02 S/m
electrical conductivity (298.15 K, 101 kPa, x1 = 0.003167): 1.15 ± 0.02 S/m
electrical conductivity (298.15 K, 101 kPa, x1 = 0.003324): 1.2 ± 0.02 S/m

O=C1CCCC1 + CCCC[n+]1ccn(C)c1.F[P-](F)(F)(F)(F)F
viscosity (298.15 K, 101.3 kPa, x1 = 0.0936): 175 ± 17 mPa·s
viscosity (298.15 K, 101.3 kPa, x1 = 0.3093): 66 ± 2.4 mPa·s
viscosity (298.15 K, 101.3 kPa, x1 = 0.4012): 42.2 ± 1.3 mPa·s
viscosity (298.15 K, 101.3 kPa, x1 = 0.5514): 19.23 ± 0.49 mPa·s
